Test results taken from patent publication US20090238808A1, “Process for the identification of novel enzyme interacting compounds” (priority 2005, published 2009).

How the values were obtained:
[1] = target: T1, proteins captured on kinobeads from Jurkat cell lysate (Homo sapiens, UniProt Q14289); assay: In-lysate competition binding with kinobeads, Jurkat lysate, iTRAQ MS, relative intensity of identified proteins (Table 22); conditions: DMSO control = 1.0
T1 construct: endogenous in cells; host or cells: Jurkat clone E6-1 lysate
T1 sequence (Q14289 whole entry): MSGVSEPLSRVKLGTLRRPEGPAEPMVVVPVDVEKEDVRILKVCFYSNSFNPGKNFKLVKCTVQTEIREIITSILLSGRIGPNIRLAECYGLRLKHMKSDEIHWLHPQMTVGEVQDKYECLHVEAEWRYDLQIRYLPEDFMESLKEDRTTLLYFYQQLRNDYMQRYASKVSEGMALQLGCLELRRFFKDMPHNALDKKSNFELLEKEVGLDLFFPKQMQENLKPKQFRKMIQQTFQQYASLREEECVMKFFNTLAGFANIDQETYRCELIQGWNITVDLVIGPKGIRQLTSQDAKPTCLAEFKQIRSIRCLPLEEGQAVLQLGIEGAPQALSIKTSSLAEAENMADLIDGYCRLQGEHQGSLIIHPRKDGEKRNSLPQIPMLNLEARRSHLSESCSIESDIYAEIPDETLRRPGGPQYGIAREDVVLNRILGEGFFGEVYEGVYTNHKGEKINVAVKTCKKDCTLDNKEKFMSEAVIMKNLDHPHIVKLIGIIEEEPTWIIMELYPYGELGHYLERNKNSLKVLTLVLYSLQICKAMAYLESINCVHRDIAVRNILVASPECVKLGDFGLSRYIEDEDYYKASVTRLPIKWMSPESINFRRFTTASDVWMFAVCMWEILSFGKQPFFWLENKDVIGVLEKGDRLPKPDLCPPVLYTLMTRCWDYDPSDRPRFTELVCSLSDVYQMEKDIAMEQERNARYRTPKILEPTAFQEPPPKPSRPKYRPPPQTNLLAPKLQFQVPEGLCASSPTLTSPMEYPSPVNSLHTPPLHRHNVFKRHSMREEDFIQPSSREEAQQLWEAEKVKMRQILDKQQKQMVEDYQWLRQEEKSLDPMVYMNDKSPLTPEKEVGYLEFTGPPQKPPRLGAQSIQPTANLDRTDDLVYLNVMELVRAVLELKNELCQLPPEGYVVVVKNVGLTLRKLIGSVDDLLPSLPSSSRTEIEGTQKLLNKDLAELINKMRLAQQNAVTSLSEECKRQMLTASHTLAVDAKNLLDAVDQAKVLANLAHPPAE

[2] = target: CDKL5 (Mus musculus, UniProt Q3UTQ8); assay: Kinobeads elution with test compound, mouse brain lysate, MS; type: binding; conditions: kinase released from kinobeads by specific elution
Chain of CDKL5 (Q3UTQ8 whole entry): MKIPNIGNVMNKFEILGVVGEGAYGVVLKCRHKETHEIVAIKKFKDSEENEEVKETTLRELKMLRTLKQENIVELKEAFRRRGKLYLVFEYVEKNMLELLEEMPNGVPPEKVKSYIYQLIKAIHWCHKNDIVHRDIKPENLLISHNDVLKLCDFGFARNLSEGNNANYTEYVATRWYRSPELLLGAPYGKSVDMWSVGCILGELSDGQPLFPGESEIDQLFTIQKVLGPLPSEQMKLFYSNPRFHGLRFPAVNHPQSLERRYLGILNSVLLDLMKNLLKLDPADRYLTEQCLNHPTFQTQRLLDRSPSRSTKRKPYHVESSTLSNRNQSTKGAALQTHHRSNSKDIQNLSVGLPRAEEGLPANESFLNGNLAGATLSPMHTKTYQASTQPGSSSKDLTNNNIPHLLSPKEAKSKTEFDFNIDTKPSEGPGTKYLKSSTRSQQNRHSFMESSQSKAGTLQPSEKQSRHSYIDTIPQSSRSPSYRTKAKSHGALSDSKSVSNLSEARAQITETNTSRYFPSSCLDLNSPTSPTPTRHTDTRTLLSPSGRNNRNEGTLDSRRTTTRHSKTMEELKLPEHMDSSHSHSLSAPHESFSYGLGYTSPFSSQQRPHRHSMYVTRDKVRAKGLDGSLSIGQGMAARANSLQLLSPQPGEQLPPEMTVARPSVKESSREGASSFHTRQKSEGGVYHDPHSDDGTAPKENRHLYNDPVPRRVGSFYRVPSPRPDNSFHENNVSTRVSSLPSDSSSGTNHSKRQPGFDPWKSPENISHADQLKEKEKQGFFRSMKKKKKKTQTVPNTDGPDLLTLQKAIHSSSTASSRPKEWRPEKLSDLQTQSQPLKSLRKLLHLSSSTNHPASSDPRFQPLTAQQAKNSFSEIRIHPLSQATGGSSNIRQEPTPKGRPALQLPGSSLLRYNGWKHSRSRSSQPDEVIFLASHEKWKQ
From the text: This example illustrates competitive elution of proteins bound to kinobeads with non-modified test compounds (see particularly the fourth aspect of the invention). […] The kinobeads were contacted with mouse brain lysate under conditions that allow the binding of the proteins in the lysate to the ligands. The binding conditions were close to physiological by choosing suitable buffer conditions preserving the function of the proteins. After removing non-captured proteins through a gentle washing procedure the bound proteins were contacted with a test compound for protein elution. […] 1. […] Transfer 20 μl the 1:3 slurry into MoBiTech columns (equivalent to 5 μl of beads). 3. Place the column into an Eppendorf tube and centrifuge it for 15 seconds at 800 rpm at 4° C. Close columns with lower lid. 4. Add 10 μl elution buffer containing 1.0 mM of the test compound (concentration ranges of 0.1 to 1.0 mM are suitable). […] Close column with upper lid. 5. Incubate for 30 minutes at 4° C. in an Eppendorf incubator at 700 rpm. 6. Open column (first top, then bottom), put column back into siliconized tube ([…] Microcentrifuge Tubes, cat. no 11270, Sorenson BioScience, Inc.). To harvest the eluate centrifuge 2 minutes at 2.000 rpm in table top centrifuge at room temperature. The typical volume of the eluate is approximately 15 μl. 7. […]

Row | SMILES | Relative Intensity, PYK2 (PTK2B) ([1]; 0.074 uM in lysate) | Relative Intensity, PYK2 (PTK2B) ([1]; 0.67 uM in lysate) | mass spectrometry score, CDKL5 [2] | number of identified peptides, CDKL5 [2]
1 | Cn1cc(C2=C(c3cn(CCCN)c4ccccc34)C(=O)NC2=O)c2ccccc21 [Bis VIII, Bisindolylmaleimide VIII] | 0.82 | 0.74 | – | –
2 | CC(C)[C@H](CO)Nc1nc(Nc2ccc(C(=O)O)c(Cl)c2)c2ncn(C(C)C)c2n1 [Purvalanol B, reference compound] | – | – | 48 | 1
